Assay results reported in patent publication US6706663B2, “Herbicidal 3-heterocyclic substituted benzisothiazole and benzisoxazole compounds” (Wyeth, priority 2000, dated 2004).

Key:
[1] = tested on: AMBEL (Ambrosia artemisifolia); experiment: Postemergence herbicidal evaluation; format: in vivo, L.
Procedure, shortened: (§1)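 Seedlings grown about two weeks in flats, sprayed, then kept under standard greenhouse care. Rated visually 4–5 weeks after treatment on a 0–9 scale (stand, vigour, malformation, size, chlorosis, overall appearance) relative to untreated control; repeat tests averaged.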

[2] = tested on: CASOB (Cassia obtusifolia); experiment: Postemergence herbicidal evaluation; format: in vivo, L.
Procedure, shortened: as §1

[3] = tested on: CHEAL (Chenopodium album); experiment: Postemergence herbicidal evaluation; format: in vivo, L.
Procedure, shortened: as §1

[4] = tested on: SAGPY (Sagittaria pygmaea); experiment: Flooded paddy, preemergence weed control; format: in vivo, L.; conditions: rated 3-4 weeks after treatment, 0-9 rating scale
Procedure, shortened: (§2)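 Scoring used a 0-9 visual scale relative to control. Before that, seeds or propagules were planted shallowly in silt loam and flooded to 1.5–3 cm, a depth maintained throughout, with greenhouse care during the test.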

[5] = tested on: ABUTH (Abutilon theophrasti); experiment: Postemergence herbicidal evaluation; format: in vivo, Medic.
Procedure, shortened: as §1

GALAP (Galium aparine) [6] = experiment: Postemergence herbicidal evaluation; format: in vivo
Procedure, shortened: as §1

[7] = tested on: TRZAWR (Wheat, Winter, cv Riband); experiment: Postemergence herbicidal evaluation; format: in vivo, Triticum aestivum
Procedure, shortened: as §1

[8] = tested on: MOOVA (Monochoria vaginalis); experiment: Flooded paddy, preemergence weed control; format: in vivo, Presl.; conditions: rated 3-4 weeks after treatment, 0-9 rating scale
Procedure, shortened: as §2

[9] = tested on: IPOHE (Ipomoea hederacea); experiment: Postemergence herbicidal evaluation; format: in vivo, (L.) Jacq.
Procedure, shortened: as §1

CYPIR (Cyperus iria) = experiment: Flooded paddy, preemergence weed control; format: in vivo; conditions: rated 3-4 weeks after treatment, 0-9 rating scale
Procedure, shortened: as §2

[10] = tested on: CYPSE (Cyperus serotinus); experiment: Flooded paddy, preemergence weed control; format: in vivo, Rottb.; conditions: rated 3-4 weeks after treatment, 0-9 rating scale
Procedure, shortened: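 Herbicidal effect was scored visually on a 0–9 scale against an untreated control 3–4 weeks after treatment. Compounds were applied preemergence as 50/50 v/v aqueous/acetone mixtures into flood water (1.5–3 cm deep over silt loam), at roughly 0.0080 to 0.1250 kg/ha active ingredient.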

[11] = tested on: AMBEL (Ambrosia artemisifolia); experiment: Preemergence herbicidal evaluation; format: in vivo, L.; conditions: preemergence, rated 4-5 weeks after treatment
Procedure, shortened: (§3)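 Applied before emergence as an aqueous acetone spray over seeded soil. Read-out: 0–9 visual rating covering plant stand, vigor, size, chlorosis, malformation and overall appearance compared with control, taken 4–5 weeks after spraying.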

[12] = tested on: CASOB (Cassia obtusifolia); experiment: Preemergence herbicidal evaluation; format: in vivo, L.; conditions: preemergence, rated 4-5 weeks after treatment
Procedure, shortened: as §3

[13] = tested on: CHEAL (Chenopodium album); experiment: Preemergence herbicidal evaluation; format: in vivo, L.; conditions: preemergence, rated 4-5 weeks after treatment
Procedure, shortened: as §3

GALAP (Galium aparine) [14] = experiment: Preemergence herbicidal evaluation; format: in vivo; conditions: preemergence, rated 4-5 weeks after treatment
Procedure, shortened: as §3

ORYSAT (Rice, Tebonnet) [15] = experiment: Preemergence herbicidal evaluation; format: in vivo, Oryza sativa, (L.) Tebonnet; conditions: preemergence, rated 4-5 weeks after treatment
ORYSAT (Rice, Tebonnet) [16] = experiment: Postemergence herbicidal evaluation; format: in vivo, Oryza sativa, (L.) Tebonnet
Procedure, shortened: as §1

[17] = tested on: ECHCG (Echinochloa crus-galli); experiment: Preemergence herbicidal evaluation; format: in vivo, (L.) Beau; conditions: preemergence, rated 4-5 weeks after treatment
Procedure, shortened: as §3

SETVI (Setaria viridis) [18] = experiment: Preemergence herbicidal evaluation; format: in vivo, (L.) Beau; conditions: preemergence, rated 4-5 weeks after treatment
Procedure, shortened: as §3

SETVI (Setaria viridis) [19] = experiment: Postemergence herbicidal evaluation; format: in vivo, (L.) Beau
Procedure, shortened: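 Seedlings grown about two weeks were sprayed with compound in 50/50 acetone/water containing 0.5% TWEEN 20, at about 0.0040 to 1.000 kg/ha via nozzle at 40 psi. Plants were kept under greenhouse conditions and visually rated on a 0-9 scale versus control four to five weeks after treatment; replicate tests averaged.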

Cc1nnc(-c2nsc3ccc(-n4c(=O)cc(C(F)(F)F)n(C)c4=O)cc23)s1 [Compound 17, 1-methyl-3-[3-(5-methyl-1,3,4-thiadiazol-2-yl)-1,2-benzisothiazol-5-yl]-6-(trifluoromethyl)uracil]
Postemergence herbicidal rating, AMBEL ([1]; rate 0.0320 kg/ha): 4.0
Postemergence herbicidal rating, AMBEL ([1]; rate 0.0620 kg/ha): 9.0
Postemergence herbicidal rating, AMBEL ([1]; rate 0.1250 kg/ha): 9.0
Postemergence herbicidal rating, AMBEL ([1]; rate 0.2500 kg/ha): 9.0
Postemergence herbicidal rating, CASOB ([2]; rate 0.0320 kg/ha): 0.0
Postemergence herbicidal rating, CASOB ([2]; rate 0.0620 kg/ha): 0.0
Postemergence herbicidal rating, CASOB ([2]; rate 0.1250 kg/ha): 2.0
Postemergence herbicidal rating, CASOB ([2]; rate 0.2500 kg/ha): 2.0
Postemergence herbicidal rating, CHEAL ([3]; rate 0.0320 kg/ha): 3.0
Postemergence herbicidal rating, CHEAL ([3]; rate 0.0620 kg/ha): 3.0
Postemergence herbicidal rating, CHEAL ([3]; rate 0.1250 kg/ha): 4.0
Postemergence herbicidal rating, CHEAL ([3]; rate 0.2500 kg/ha): 9.0
herbicidal rating, SAGPY ([4]; rate 0.0080 kg/ha): 0.0
herbicidal rating, SAGPY ([4]; rate 0.0320 kg/ha): 2.5
herbicidal rating, SAGPY ([4]; rate 0.1250 kg/ha): 5.5
Postemergence herbicidal rating, ABUTH ([5]; rate 0.0320 kg/ha): 9.0
Postemergence herbicidal rating, ABUTH ([5]; rate 0.0620 kg/ha): 9.0
Postemergence herbicidal rating, ABUTH ([5]; rate 0.1250 kg/ha): 9.0
Postemergence herbicidal rating, ABUTH ([5]; rate 0.2500 kg/ha): 9.0
Postemergence herbicidal rating, GALAP (GALAP (Galium aparine) [6]; rate 0.0320 kg/ha): 1.0
Postemergence herbicidal rating, GALAP (GALAP (Galium aparine) [6]; rate 0.0620 kg/ha): 1.0
Postemergence herbicidal rating, GALAP (GALAP (Galium aparine) [6]; rate 0.1250 kg/ha): 6.0
Postemergence herbicidal rating, GALAP (GALAP (Galium aparine) [6]; rate 0.2500 kg/ha): 6.0
Postemergence herbicidal rating, TRZAWR ([7]; rate 0.0320 kg/ha): 3.0
Postemergence herbicidal rating, TRZAWR ([7]; rate 0.0620 kg/ha): 3.0
Postemergence herbicidal rating, TRZAWR ([7]; rate 0.1250 kg/ha): 3.0
Postemergence herbicidal rating, TRZAWR ([7]; rate 0.2500 kg/ha): 3.5
herbicidal rating, MOOVA ([8]; rate 0.0080 kg/ha): 6.0
herbicidal rating, MOOVA ([8]; rate 0.0320 kg/ha): 9.0
herbicidal rating, MOOVA ([8]; rate 0.1250 kg/ha): 9.0
Postemergence herbicidal rating, IPOHE ([9]; rate 0.0320 kg/ha): 9.0
Postemergence herbicidal rating, IPOHE ([9]; rate 0.0620 kg/ha): 9.0
Postemergence herbicidal rating, IPOHE ([9]; rate 0.1250 kg/ha): 9.0
Postemergence herbicidal rating, IPOHE ([9]; rate 0.2500 kg/ha): 9.0
herbicidal rating, CYPIR (CYPIR (Cyperus iria); rate 0.0080 kg/ha): 0.0
herbicidal rating, CYPIR (CYPIR (Cyperus iria); rate 0.0320 kg/ha): 3.5
herbicidal rating, CYPIR (CYPIR (Cyperus iria); rate 0.1250 kg/ha): 7.0
herbicidal rating, CYPSE ([10]; rate 0.0080 kg/ha): 0.0
herbicidal rating, CYPSE ([10]; rate 0.0320 kg/ha): 3.0
herbicidal rating, CYPSE ([10]; rate 0.1250 kg/ha): 4.5
AMBEL preemergence herbicidal rating ([11]; Rate 0.0620 kg/ha): 4.0
AMBEL preemergence herbicidal rating ([11]; Rate 0.1250 kg/ha): 5.0
AMBEL preemergence herbicidal rating ([11]; Rate 0.2500 kg/ha): 9.0
CASOB preemergence herbicidal rating ([12]; Rate 0.0620 kg/ha): 0.0
CASOB preemergence herbicidal rating ([12]; Rate 0.1250 kg/ha): 0.0
CASOB preemergence herbicidal rating ([12]; Rate 0.2500 kg/ha): 3.0
CHEAL preemergence herbicidal rating ([13]; Rate 0.0620 kg/ha): 9.0
CHEAL preemergence herbicidal rating ([13]; Rate 0.1250 kg/ha): 9.0
CHEAL preemergence herbicidal rating ([13]; Rate 0.2500 kg/ha): 9.0
GALAP preemergence herbicidal rating (GALAP (Galium aparine) [14]; Rate 0.0620 kg/ha): 7.0
GALAP preemergence herbicidal rating (GALAP (Galium aparine) [14]; Rate 0.1250 kg/ha): 9.0
GALAP preemergence herbicidal rating (GALAP (Galium aparine) [14]; Rate 0.2500 kg/ha): 9.0
ORYSAT preemergence herbicidal rating (ORYSAT (Rice, Tebonnet) [15]; Rate 0.0620 kg/ha): 0.0
ORYSAT preemergence herbicidal rating (ORYSAT (Rice, Tebonnet) [15]; Rate 0.1250 kg/ha): 0.0
ORYSAT preemergence herbicidal rating (ORYSAT (Rice, Tebonnet) [15]; Rate 0.2500 kg/ha): 1.0
Postemergence herbicidal rating, ORYSAT (ORYSAT (Rice, Tebonnet) [16]; rate 0.0320 kg/ha): 1.0
Postemergence herbicidal rating, ORYSAT (ORYSAT (Rice, Tebonnet) [16]; rate 0.0620 kg/ha): 1.5
Postemergence herbicidal rating, ORYSAT (ORYSAT (Rice, Tebonnet) [16]; rate 0.1250 kg/ha): 2.0
Postemergence herbicidal rating, ORYSAT (ORYSAT (Rice, Tebonnet) [16]; rate 0.2500 kg/ha): 7.5
ECHCG preemergence herbicidal rating ([17]; Rate 0.0620 kg/ha): 0.0
ECHCG preemergence herbicidal rating ([17]; Rate 0.1250 kg/ha): 1.0
ECHCG preemergence herbicidal rating ([17]; Rate 0.2500 kg/ha): 5.0
SETVI preemergence herbicidal rating (SETVI (Setaria viridis) [18]; Rate 0.0620 kg/ha): 0.0
SETVI preemergence herbicidal rating (SETVI (Setaria viridis) [18]; Rate 0.1250 kg/ha): 9.0
SETVI preemergence herbicidal rating (SETVI (Setaria viridis) [18]; Rate 0.2500 kg/ha): 9.0
Postemergence herbicidal rating, SETVI (SETVI (Setaria viridis) [19]; rate 0.0320 kg/ha): 0.0
Postemergence herbicidal rating, SETVI (SETVI (Setaria viridis) [19]; rate 0.0620 kg/ha): 0.0
Postemergence herbicidal rating, SETVI (SETVI (Setaria viridis) [19]; rate 0.1250 kg/ha): 3.0
Postemergence herbicidal rating, SETVI (SETVI (Setaria viridis) [19]; rate 0.2500 kg/ha): 7.0
